Experiments:
[1] = molecular target: OCT2 (Homo sapiens, UniProt O15244); assay: inhibition of ASP+ uptake in HEK293 cells over-expressing OCT2; format: cell-based
[2] = molecular target: T1, OCT1 (Homo sapiens, UniProt O15245); assay: inhibition of ASP+ uptake in HEK293 cells over-expressing OCT1; format: cell-based
T1 sequence (O15245 1-554): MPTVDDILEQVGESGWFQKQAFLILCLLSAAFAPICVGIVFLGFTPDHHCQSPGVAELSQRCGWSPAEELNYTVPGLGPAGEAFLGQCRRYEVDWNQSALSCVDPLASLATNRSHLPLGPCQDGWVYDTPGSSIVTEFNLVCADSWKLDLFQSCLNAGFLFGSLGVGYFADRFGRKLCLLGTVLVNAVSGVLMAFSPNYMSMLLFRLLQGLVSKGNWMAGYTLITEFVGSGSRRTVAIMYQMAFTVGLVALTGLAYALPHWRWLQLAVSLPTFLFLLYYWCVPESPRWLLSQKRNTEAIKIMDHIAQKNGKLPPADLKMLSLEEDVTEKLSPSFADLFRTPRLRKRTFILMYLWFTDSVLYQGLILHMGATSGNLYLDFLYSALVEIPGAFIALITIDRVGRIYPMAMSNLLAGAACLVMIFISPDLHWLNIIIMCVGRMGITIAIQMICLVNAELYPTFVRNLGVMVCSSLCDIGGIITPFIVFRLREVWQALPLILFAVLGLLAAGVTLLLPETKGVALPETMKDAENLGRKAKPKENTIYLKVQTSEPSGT

Chain of OCT2 (O15244 whole entry): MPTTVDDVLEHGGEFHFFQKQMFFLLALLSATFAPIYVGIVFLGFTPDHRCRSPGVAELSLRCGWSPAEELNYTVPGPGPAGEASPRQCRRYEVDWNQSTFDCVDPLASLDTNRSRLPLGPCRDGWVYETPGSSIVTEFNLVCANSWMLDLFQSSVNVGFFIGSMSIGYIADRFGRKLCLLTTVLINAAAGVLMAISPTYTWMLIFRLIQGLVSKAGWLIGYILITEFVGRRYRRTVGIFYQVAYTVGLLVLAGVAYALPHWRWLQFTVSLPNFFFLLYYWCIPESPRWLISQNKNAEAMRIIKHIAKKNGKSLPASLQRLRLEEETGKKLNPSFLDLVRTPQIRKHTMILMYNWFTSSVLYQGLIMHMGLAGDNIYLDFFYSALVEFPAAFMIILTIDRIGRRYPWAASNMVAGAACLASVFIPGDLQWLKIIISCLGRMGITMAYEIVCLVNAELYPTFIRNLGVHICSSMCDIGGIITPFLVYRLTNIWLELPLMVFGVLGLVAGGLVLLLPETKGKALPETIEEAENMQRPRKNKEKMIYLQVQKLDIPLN

**Q.** What does the source list for `CN1CCN(CCOc2cc(OC3CCOCC3)c3c(Nc4c(Cl)ccc5c4OCO5)ncnc3c2)CC1` [saracatinib, N-(5-chloro-1,3-benzodioxol-4-yl)-7-[2-(4-methylpiperazin-1-yl)ethoxy]-5-(tetrahydro-2H-pyran-4-yloxy)quinazolin-4-amine]?
**A.** IC50 [1]: 0.46 µM; IC50 [2]: 27.1 µM
